Data reported in PubChem BioAssay (NCI).
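Each compound was tested at five concentrations against cells in 96-well plates for 48 hours. At the GI50, growth is halved. Definition used: TGI = concentration required for complete inhibition of growth.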

Experiments:
Assay in all cases: NCI tumour cell line growth inhibition, 48 h
EKVX NSCLC = test system: EKVX NSCLC
UACC-62 melanoma = test system: UACC-62 melanoma
SW-620 colon = test system: SW-620 colon
NCI-H522 lung = test system: NCI-H522 lung
COLO 205 colon = test system: COLO 205 colon
IGROV1 ovarian = test system: IGROV1 ovarian
ACHN renal = test system: ACHN renal
HCT-15 colon = test system: HCT-15 colon
NCI-H23 lung = test system: NCI-H23 lung
RXF 393 renal = test system: RXF 393 renal

Compound | TGI (EKVX NSCLC) | TGI (UACC-62 melanoma) | TGI (SW-620 colon) | TGI (NCI-H522 lung) | TGI (COLO 205 colon) | TGI (IGROV1 ovarian) | TGI (ACHN renal) | TGI (HCT-15 colon) | TGI (NCI-H23 lung) | GI50 (UACC-62 melanoma) | GI50 (SW-620 colon) | GI50 (NCI-H522 lung) | GI50 (RXF 393 renal) | TGI (RXF 393 renal) | GI50 (COLO 205 colon) | GI50 (IGROV1 ovarian) | GI50 (ACHN renal) | GI50 (HCT-15 colon) | GI50 (NCI-H23 lung) | GI50 (EKVX NSCLC)
Cc1cc(=O)c2c(O)cc3c(c2o1)CC=C(COC1OC(COC2OC(CO)C(O)C(O)C2O)C(O)C(O)C1O)CO3 (stereo not drawn) | > 100 µM | > 100 µM | > 100 µM | > 100 µM | > 100 µM | > 100 µM | > 100 µM | > 100 µM | > 100 µM | – | – | – | – | – | – | – | – | – | – | –
COc1ccc(Nc2ccnc(N3CCN(c4ccnc5cc(Cl)ccc45)CC3)n2)cc1 | – | 1.43 µM | > 73.1 µM | 1.75 µM | 3.8 µM | – | > 24.5 µM | > 100 µM | 9.4 µM | 0.292 µM | 0.739 µM | 0.321 µM | 1.31 µM | 6.6 µM | 1.38 µM | 0.696 µM | 0.955 µM | 0.83 µM | 1.65 µM | –
COc1ccc(/C=C(\C)[N+](=O)[O-])cc1OC | – | 3.87 µM | 3.8 µM | 2.94 µM | 4.46 µM | 5.51 µM | 3.16 µM | 3.54 µM | 7.13 µM | 1.82 µM | 1.78 µM | 1.34 µM | 1.72 µM | 3.18 µM | 2.23 µM | 2.16 µM | 1.69 µM | 1.4 µM | 2.6 µM | –
CCc1c(C)nc2sc3c(N)ncnc3c2c1C | – | > 25 µM | > 25 µM | > 25 µM | > 25 µM | > 25 µM | > 25 µM | > 25 µM | > 25 µM | > 25 µM | > 25 µM | > 25 µM | > 25 µM | > 25 µM | > 25 µM | > 25 µM | > 25 µM | > 25 µM | > 25 µM | –
O=C(NCCNCCO)c1cccc2ccc(-c3ccccc3)nc12 | 19.7 µM | 13.8 µM | 14.2 µM | – | 13.6 µM | 13.2 µM | 5.65 µM | 14.8 µM | 15.3 µM | – | – | – | – | 15.5 µM | – | – | – | – | – | –
C=C1[C@@H](O)O[C@H]2[C@H]1C[C@H](OC(C)=O)[C@]13C(=O)O[C@H]4C[C@](C)(O)[C@H]([C@H]41)C31C=C(C)[C@]2(O)O1 | 0.0269 µM | > 100 µM | > 100 µM | 21.4 µM | > 100 µM | 71.4 µM | > 100 µM | > 100 µM | – | 30.3 µM | 29.8 µM | 4.53 µM | – | – | 48.9 µM | 18.8 µM | 49.8 µM | 49.2 µM | – | –
CC1c2ccccc2CCN1c1ccc(CO)c(Cl)c1 (stereo not drawn) | – | 14.5 µM | > 100 µM | 50.5 µM | 0.626 µM | 0.307 µM | > 81 µM | 53.3 µM | > 72.3 µM | 0.15 µM | 0.203 µM | 17.4 µM | 1.2 µM | 23.8 µM | 0.19 µM | 0.0488 µM | 22.6 µM | 13.3 µM | 21.8 µM | –
C/C(=N\O)c1cccc(Nc2cc(-n3ccnc3)c3ccccc3n2)c1 | 28.1 µM | 19.5 µM | 42.1 µM | 30.7 µM | 29.1 µM | 20.5 µM | 19.4 µM | 22.6 µM | 33.6 µM | 6.63 µM | 19.6 µM | 14.3 µM | – | – | 13 µM | 4.3 µM | 7.31 µM | 9.26 µM | 16.7 µM | 13.2 µM
Fc1cccc(F)c1C(Nc1nncs1)Nc1nncs1 | – | > 100 µM | > 100 µM | > 100 µM | > 100 µM | > 100 µM | > 100 µM | > 100 µM | > 100 µM | – | – | – | – | > 100 µM | – | – | – | – | – | –
c1ccc2c(c1)CCc1c-2n[nH]c1-c1[nH]nc2c1CCc1ccccc1-2 | > 100 µM | > 100 µM | > 100 µM | – | > 100 µM | > 100 µM | > 100 µM | > 100 µM | > 100 µM | – | – | – | – | – | – | – | – | – | – | –
CCCC(S(=O)(=O)c1ccccc1)S(=O)(=O)c1ccccc1 | > 100 µM | > 100 µM | > 100 µM | – | – | > 100 µM | > 100 µM | > 100 µM | > 100 µM | – | – | – | – | > 100 µM | – | – | – | – | – | –
C[CH2][Hg][S]c1ccccc1C(=O)O | 5.39 µM | 2.98 µM | 2.24 µM | – | 2.86 µM | 4.42 µM | 2.83 µM | 2.52 µM | 2.7 µM | 1.36 µM | 0.838 µM | – | – | – | 1.24 µM | 1.37 µM | 1.49 µM | 1.07 µM | 1.18 µM | 2.05 µM
